One assay concerns sphingomyelinase. Nature of the assay: Sphingomyelinase activity assay (Sphingomyelinase Assay Kit ab138876) with or without FTY720. Format: biochemical. The conditions noted are these: different sphingomyelinase concentrations, sphingomyelin as substrate, 60 min at 37° C., absorbance. As for the experimental part:
Different concentrations (horizontal axis) of purified sphingomyelinase are added in the presence or absence of FTY720 and incubation proceeded for 60 min at 37° C., before measuring sphingomyelin breakdown in absorbance. Blue line (top line): value of sphingomyelinase activity under normal control conditions, red line (bottom line): value of sphingomyelinase activity in the presence of FTY720.
Embodiment 4: Direct inhibition of sphingomyelinase by FTY720 Experimental method: FTY720 is purchased from Sigma, Cas No. 162359-56-0. Sphingomyelinase activity is determined using the Sphingomyelinase Assay Kit (ab138876) kit. The experiment is divided into two groups: normal sphingomyelinase activity assay group and sphingomyelinase activity assay group in the presence of FTY720.

Assay [1] concerns MEF cells deficient in ATP13A2. Nature of the assay: Drug screening: intracellular sphingomyelin (SM C18) content by mass spectrometry. The following applies: ATP13A2 KO MEF cells treated 48 hours (FIG. 8 legend: 10 μM, 37° C., 24 h). Type of assay: cell-based, mouse. The procedure:
Experimental method: ten potential sphingolipid metabolic drugs reported in the literature for screening the modulatory effects on intracellular sphingolipids are selected, namely Fingolimod, Fluoxetine, Amitriptyline, Clomipramine, Desipramine, Siponimod, KRP-203, Amlodipine, Sertraline, Trimipramine, etc. MEF cells with disease-causing gene ATP13A2 KO are obtained using the disease model mouse embryos isolated and cultured. The MEF cells deficient in ATP13A2 are treated with the above ten drugs individually for 48 hours, and the intracellular content of sphingomyelin (SM C18) is measured by mass spectrometry.

For assay [2], the system named is ATP13A2 KO neurodegenerative disease model mice. Nature of the assay: Rotating rod test of movement function. Format: in vivo, mouse. As for the experimental part:
Experimental method: five drugs, including fingolimod, fluoxetine, clomipramine, desipramine, and trimipramine, are selected for oral administration (0.5 mg/kg) to diseased mice. The effect of the drugs on the movement function of the mice is examined one week after drug administration.
Experimental method: The experiment is divided into four groups: C57BL/6 normal WT mice+normal saline control group (WT+C group), ATP13A2 KO neurodegenerative disease model mice+normal saline control group (KO+C group), normal WT mice+FTY720 group (WT+FTY720 group), and ATP13A2 KO neurodegenerative disease model mice+FTY720 group (KO+FTY720 group). The mice are injected intraperitoneally with FTY720 (0.25 mg/kg/day, i.p.). 5 days later, the mice are tested for movement function using a rotating rod test.
Experimental method: The experiment is divided into four groups: C57BL/6 normal WT mice+normal saline control group (WT+C group), ATP13A2 KO neurodegenerative disease model mice+normal saline control group (KO+C group), normal WT mice+FTY720 group (WT+FTY720 group), ATP13A2 KO neurodegenerative disease model mice+FTY720 group (KO+FTY720 group). FTY720 dissolved in water is administered to mice orally administered (0.5 mg/kg/day), and one week later, the mice are tested for movement function using the rotating rod test.
Experimental method: The experiment is divided into four groups: C57BL/6 normal WT mice+normal saline control group (WT+C group), ATP13A2 KO neurodegenerative disease model mice+normal saline control group (KO+C group), normal WT mice+FTY720 group (WT+FTY720 group), and ATP13A2 KO neurodegenerative disease model mice+FTY720 group (KO+FTY720 group). A single administration (10 μg, i.c.v.) is administered to the mice by ventricular injection, and one week later, the mice are tested for movement function using the rotating rod test.
(§1) Experimental method: The experiment is divided into four groups: C57BL/6 normal WT mice+normal saline control group (WT+C group), ATP13A2 KO aged disease model mice+normal saline control group (KO+C group), normal WT mice+FTY720 group (WT+FTY720 group), and ATP13A2 KO neurodegenerative disease model mice+FTY720 group (KO+FTY720 group). The mice are administered orally (0.5 mg/kg/day), and after two weeks, the movement function of the mice is examined using the standing test and the rotating rod test.

For assay [3] the test system is unchanged. Nature of the assay: Expression of genes related to sphingolipid metabolism in orbitofrontal cortex. Type of assay: in vivo, mouse. The conditions noted are these: one week after i.p. 0.5 mg/kg. As for the experimental part: Red (dark) color indicates high expression and blue (light) color indicates low expression.
Experimental method: the experiment is divided into 4 groups: C57BL/6 normal WT mice+normal saline control group (WT+C group), ATP13A2 KO neurodegenerative disease model mice+normal saline control group (KO+C group), normal WT mice+FTY720 group (WT+FTY720 group), and ATP13A2 KO neurodegenerative disease model mice+FTY720 group (KO+FTY720 group). One week after intraperitoneal injection of FTY720 (0.5 mg/kg), samples are extracted from the orbitofrontal cortex area of mouse brain tissue, and Smpd1 Smpd2 Smpd3 Smpd4 Enpp7 Asah1 Asah2 Acer1 Acer2 Acer3 Cers1 Cers2 Cers3 Cers4 Cers5 Cers6 Col4a3 bp Cerk Gba Ugcg Degs1 Degs2 Sgpl1 Sptlc1 Sptic2 Sptic3 Abca1 Abca2 Abca7 Abca12 Abcc1 Abcg1 Abcg2 Sgms1 Sgms2 Cftr Sphk1 Sphk2 Slpr1 Kit Hexa Hexb Gal3st1 Gaphdh TERC TERT Ki67, etc. totally 47 genes related to sphingolipid metabolism are analyzed for comparison.

Assay [4] has the same test system. Nature of the assay: Lipidomic assay of striatum brain tissue (LC-MS). Format: in vivo, mouse. The following applies: one week after i.p. 0.5 mg/kg. As for the experimental part: Experimental method: the experiment is divided into 4 groups: C57BL/6 normal WT mice+normal saline control group (WT+C group), ATP13A2 KO neurodegenerative disease model mice+normal saline control group (KO+C group), normal WT mice+FTY720 group (WT+FTY720 group), and ATP13A2 KO neurodegenerative disease model mice+FTY720 group (KO+FTY720 group). One week after intraperitoneal injection of FTY720 (0.5 mg/kg), mice are sampled from the striatum of brain tissue, lipids are extracted from the brain tissue samples using a lipid extraction method, appropriate internal standards are added. All lipid analysis is performed in electrospray ionization (ESI) mode using a liquid mass spectrometer.

Assay [5] concerns ATP13A2 KO spastic paraplegic model mice. Nature of the assay: Standing test (number of standing per 30 minutes). Format: in vivo, mouse. As for the experimental part: 1-7 days with administration treatment on the disease model mice (shaded), 7-14 days with discontinuation treatment (unshaded), and 15-21 days with restored secondary administration treatment (shaded).
Experimental method: Spastic paraplegic ATP13A2 KO mice (KO mice) are divided into four groups and given normal saline or FTY720 dissolved in normal saline at 0.05, 0.1, and 0.5 mg/kg/day for oral administration, and the mice are tested in a standing test after 7 days of oral administration.
Experimental method: The experiment is divided into two groups: C57BL/6 wild normal mice (WT) and ATP13A2 KO spastic paraplegic model mice (KO), which are administered FTY720 0.5 mg/k/day orally at the same time, discontinued after 0-7 days of administration, and resumed after one week of discontinuation, during which the mice are tested for standing every other day.
as §1

Assay [6] deals with aged ATP13A2 KO paraplegic mouse. Nature of the assay: Standing in beaker and hind limb foot-based angle (FBA) before and after drug administration. Format: in vivo. The procedure:
as §1
Meanwhile, the same aged ATP13A2 KO neurodegenerative disease mouse is placed in an upright glass beaker to observe its standing (FIG. 19). […] The angle of the hind limb to the ground (FBA, foot-based angle) in the aged ATP13A2 KO paraplegic mouse is also measured.

The test system of assay [7] is ATP13A2 KO neurodegenerative disease model mice. Nature of the assay: Transmission electron microscopy of brain tissue (lipofuscin deposition, axonal myelin sheath tearing). Format: in vivo, mouse. The following applies: two weeks after oral administration, TEM. From the text:
Experimental method: The experiments are divided into three groups: C57BL/6 wild normal mice (WT), ATP13A2 KO neurodegenerative disease model mice+normal saline control (KO+C), and FTY720 treatment ATP13A2 KO mice (KO+FTY720). Mice are executed two weeks after oral administration, and brain tissue is removed and fixed for transmission electron microscopy analysis.

Assay [8] has the same test system. Nature of the assay: Brain tissue neurotransmitter content by HPLC. Type of assay: in vivo, mouse. The following applies: one week after i.p. 0.5 mg/kg, striatum, hypothalamus, substantia nigra. As for the experimental part:
Experimental method: the experiment is divided into four groups: C57BL/6 normal WT mice+normal saline control group (WT+C group), ATP13A2 KO neurodegenerative disease model mice+normal saline control group (KO+C group), normal WT mice+FTY720 group (WT+FTY720 group), and ATP13A2 KO neurodegenerative disease model mice+FTY720 group (KO+FTY720 group). One week after mice are injected intraperitoneally with FTY720 (0.5 mg/kg), samples are taken from the striatum, hypothalamus, and substantia nigra of mouse brain tissue to extract neurotransmitters in the brain. Using a high performance liquid chromatography, neurotransmitters such as dopamine, serotonin, and γ-aminobutyric acid are analyzed.

Where [9] appears, read: aged ATP13A2 KO mice, oral 0.5 mg/kg/day, two weeks.

Structures can show the parent of a compound that is named as a salt.

As for `CCCCCCCCc1ccc(CCC(N)(CO)CO)cc1` [FTY720, 2-amino-2-[2-(4-octylphenyl)]-1,3-propanediol hydrochloride], the “sphingomyelinase activity compared to the control group” value in the assay with sphingomyelinase is on record as “significant decrease”. In addition, the “intracellular sphingomyelin (SM C18) content” value (shortened to “intracellular sphingomyelin”) in [1] was “most obvious elevation”. Moreover, the “duration of stay in the rotating rod” value in assay [2] (0.25 mg/kg/day i.p., 5 days, ATP13A2 KO mice vs control group) is recorded as “significantly longer”; in assay [2] (setting [9]), “significantly longer”; in assay [2] (oral 0.5 mg/kg/day, one week, ATP13A2 KO mice vs control group) it was “significantly longer”; in [2] (single 10 μg i.c.v., one week later, ATP13A2 KO mice vs control group), “significantly longer”. The “motor function (rotating rod), screen of five drugs” value in assay [2] (oral 0.5 mg/kg, one week after drug administration, ATP13A2 KO mice) is listed as “improves the motor function of the ATP13A2 KO disease model mice among the five drugs with the most significant effect”. Besides, the “expression of cers4, cerk and sphk1” value in assay [3] was “downregulated”. For the same molecule, in assay [3], the “expression of smpd1 and enpp7” value is listed as “upregulated”. Besides, in assay [4], the “content of sphingomyelin and ceramide in striatum” value is on record as “mostly restores to the normal group level”. In addition, the number of standing result in assay [5] (setting [9]) is “significant increase”. In addition, the “number of standing after drug discontinuation” value in assay [5] (one week of discontinuation after 7 days oral 0.5 mg/k/day) is “gradual decrease”. Besides, in [5] (oral 0.5 mg/k/day, days 0-7, ATP13A2 KO paraplegic mice), the “number of standing per 30 minutes during administration” value is “increases significantly with increasing administration time”. For the same molecule, the “number of standing per 30 minutes” value in assay [5] (oral 0.05, 0.1 and 0.5 mg/kg/day, after 7 days, ATP13A2 KO paraplegic mice) was “increased to different degrees in a dose-dependent manner”. For the same molecule, the “number of standing after resumption of administration” value in [5] (resumed oral administration, days 15-21) was “gradual increase”. Further, the “standing in an upright glass beaker after drug administration” value in assay [6] (same aged ATP13A2 KO mouse before and after drug, oral 0.5 mg/kg/day) was “can be photographed to stand up by clinging to the beaker wall”. The “angle of the hind limb to the ground (FBA, foot-based angle)” value in assay [6] (same aged ATP13A2 KO paraplegic mouse before and after drug) was “significant increase”. Also, the “number of intracellular lipofuscins in brain tissue” value in assay [7] (more than 100 cells counted) is on record as “significantly reduced”. For the same molecule, the “number of torn axonal myelin sheaths in brain tissue” value in assay [7] (more than 100 myelin sheaths counted) was “significantly reduced”. Besides, in [8], the “neurotransmitter contents (dopamine, serotonin, γ-aminobutyric acid) in brain tissue” value is given as “restored to the normal group level”.

Turning to `CN(C)CCC=C1c2ccccc2CCc2ccccc21` [amitriptyline], the “intracellular sphingomyelin” value in assay [1] is reported as “most obvious elevation”.

For `CN(C)CCCN1c2ccccc2CCc2ccc(Cl)cc21` [clomipramine], in assay [1], the “intracellular sphingomyelin” value is on record as “most obvious elevation”.

Consider `CNCCC(Oc1ccc(C(F)(F)F)cc1)c1ccccc1` (centres unmarked) [fluoxetine], for which, in assay [1], the “intracellular sphingomyelin” value is given as “most obvious elevation”.

For the origin of these results see patent US20230270696A1, “MEDICINAL USE OF FINGOLIMOD IN PREVENTION AND TREATMENT OF NEURODEGENERATIVE DISEASES CAUSED BY SPHINGOLIPID DISORDERS” (priority 2020, published 2023).
